In paper PMC6271228, “Diethyl 2-(Phenylcarbamoyl)phenyl Phosphorothioates: Synthesis, Antimycobacterial Activity and Cholinesterase Inhibition” (Molecules, 2014):
Converted amounts (≈) assume the structure as drawn. Where two headings read alike, the source gives them in different places.

Legend:
[1] = tested on: Mycobacterium tuberculosis My 331/88 (H37Rv); test: microbe, parasite or virus in culture; type: cell-based
M. avium My 330/88 = test: microbe, parasite or virus in culture; type: cell-based, Mycobacterium avium; details: for MIC: Mycobacterium avium, 37 °C; for MIC values against M. avium: all MIC values (14 and 21 d)
M. kansasii My 235/80 = test: microbe, parasite or virus in culture; type: cell-based, Mycobacterium kansasii; details: for MIC: Mycobacterium kansasii, 37 °C; for MICs for M. kansasii 235/80: all time points
[2] = tested on: M. kansasii 6509/96 (clinically isolated); test: microbe, parasite or virus in culture; type: cell-based; details: Mycobacterium kansasii, 37 °C
AChE from electric eel = target: T1, AChE from electric eel (Electrophorus electricus, UniProt O42275); test: AChE inhibition, modified Ellman's method; type: biochemical, Electrophorus electricus L.
T1 construct: Acetylcholinesterase was obtained from electric eel (Electrophorus electricus L.); from tissue; host or cells: electric eel (Electrophorus electricus L.)
T1 sequence (O42275 24-633): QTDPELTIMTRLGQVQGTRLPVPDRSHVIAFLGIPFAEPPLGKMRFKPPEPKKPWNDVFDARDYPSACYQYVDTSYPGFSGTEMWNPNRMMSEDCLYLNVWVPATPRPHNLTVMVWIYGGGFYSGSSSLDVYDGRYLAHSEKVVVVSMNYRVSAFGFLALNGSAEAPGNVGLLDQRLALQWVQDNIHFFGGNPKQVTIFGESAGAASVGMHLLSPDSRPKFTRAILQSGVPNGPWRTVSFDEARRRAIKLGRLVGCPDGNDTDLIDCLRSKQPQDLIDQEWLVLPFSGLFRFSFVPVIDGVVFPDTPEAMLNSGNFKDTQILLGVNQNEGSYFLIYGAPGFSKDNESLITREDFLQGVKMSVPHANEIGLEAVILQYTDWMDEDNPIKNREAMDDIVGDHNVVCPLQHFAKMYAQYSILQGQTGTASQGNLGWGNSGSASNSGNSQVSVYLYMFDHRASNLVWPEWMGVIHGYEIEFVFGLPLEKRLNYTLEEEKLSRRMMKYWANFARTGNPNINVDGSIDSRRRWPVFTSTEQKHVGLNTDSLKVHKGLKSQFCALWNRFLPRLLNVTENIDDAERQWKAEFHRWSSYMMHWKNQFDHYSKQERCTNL
Source text: (§1) The ability of the tested compounds to inhibit AChE from electric eel (Electrophorus electricus L.) and BChE from equine serum was screened in vitro using modified Ellman’s method for the evaluation of cholinesterase activity. […] […]. These two standards were chosen due to their different structures. […]. The choice of these drugs with different mechanism of action can provide relevant results. All tested compounds expressed a good inhibitory activity with IC50s in low micromolar values.
(§2) The IC50 values were determined using the spectrophotometric Ellman’s method, which is a simple, rapid and direct method to determine the SH and -S-S- group content in proteins. This method is widely used for cholinesterase activity evaluation and screening of the efficiency of cholinesterase inhibitors. Cholinesterase activity is measured indirectly by quantifying the concentration of 5-thio-2-nitrobenzoic acid (TNB) ion formed in the reaction between the thiol reagent 5,5'-dithiobis-2-nitrobenzoic acid (DTNB) and thiocholine, a product of substrate hydrolysis by cholinesterase (i.e., acetylthiocholine, ATCh). All the tested compounds were dissolved in dimethyl sulfoxide (concentration 0.01 M) and then diluted in demineralised water (concentration 0.001 M and 0.0001 M). The Ellman’s method is slightly modified according to Zdrazilova et al.. Acetylcholinesterase was obtained from electric eel (Electrophorus electricus L.) and butyrylcholinesterase from equine serum.

BChE from equine serum = target: T2, BChE from equine serum (Equus caballus, UniProt P81908); test: BChE inhibition, modified Ellman's method; type: biochemical
T2 construct: butyrylcholinesterase from equine serum; from tissue; host or cells: equine serum
T2 sequence (P81908 whole entry): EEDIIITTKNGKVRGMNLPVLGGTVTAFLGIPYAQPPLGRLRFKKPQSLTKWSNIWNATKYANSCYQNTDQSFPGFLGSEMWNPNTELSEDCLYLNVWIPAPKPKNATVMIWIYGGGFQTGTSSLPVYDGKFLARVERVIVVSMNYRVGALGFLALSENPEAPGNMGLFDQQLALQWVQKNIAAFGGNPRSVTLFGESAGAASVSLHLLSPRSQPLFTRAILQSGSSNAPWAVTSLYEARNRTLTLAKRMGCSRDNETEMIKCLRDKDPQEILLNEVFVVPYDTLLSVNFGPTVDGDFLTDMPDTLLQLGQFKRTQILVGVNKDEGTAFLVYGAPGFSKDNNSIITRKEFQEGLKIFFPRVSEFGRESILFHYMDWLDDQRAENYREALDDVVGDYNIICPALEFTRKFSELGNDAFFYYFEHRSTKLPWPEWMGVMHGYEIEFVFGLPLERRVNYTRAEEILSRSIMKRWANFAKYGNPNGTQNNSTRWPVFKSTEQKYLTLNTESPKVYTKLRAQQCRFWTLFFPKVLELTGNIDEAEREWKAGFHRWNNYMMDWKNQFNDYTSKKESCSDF
Source text: as §1, §2

[3] = tested on: nontuberculous mycobacteria (M. avium and M. kansasii); test: microbe, parasite or virus in culture; type: cell-based; details: Mycobacterium avium, M. avium and M. kansasii strains; read-out: MIC values against nontuberculous mycobacteria
[4] = 336 h, 14 d, 37 °C, read-out: MIC Mtb 331/88 (H37Rv) 14 d
[5] = 504 h, 21 d, 37 °C, read-out: MIC Mtb 331/88 (H37Rv) 21 d
[6] = MY330/88, 336 h, 14 d, read-out: MIC M. avium 330/88 14 d
[7] = MY330/88, 504 h, 21 d, read-out: MIC M. avium 330/88 21 d
[8] = MY235/80, 168 h, 7 d, read-out: MIC M. kansasii 235/80 7 d
[9] = MY235/80, 336 h, 14 d, read-out: MIC M. kansasii 235/80 14 d
[10] = MY235/80, 504 h, 21 d, read-out: MIC M. kansasii 235/80 21 d
[11] = 168 h, 7 d, read-out: MIC M. kansasii 6509/96 7 d
[12] = 336 h, 14 d, read-out: MIC M. kansasii 6509/96 14 d
[13] = 504 h, 21 d, read-out: MIC M. kansasii 6509/96 21 d

Row | Structure (SMILES) | MIC [1, 4] | MIC [1, 5] | MIC (M. avium My 330/88; [6]) | MIC (M. avium My 330/88; [7]) | MIC (M. kansasii My 235/80; [8]) | MIC (M. kansasii My 235/80; [9]) | MIC (M. kansasii My 235/80; [10]) | MIC [2, 11] | MIC [2, 12] | MIC [2, 13] | IC50 (AChE from electric eel) | IC50 (BChE from equine serum) | MIC ([1]; read-out: MIC against Mtb) | MIC values against M. avium (M. avium My 330/88) | MICs for M. kansasii 235/80 (M. kansasii My 235/80) | MIC [3]
1 | CCOP(=S)(OCC)Oc1ccc(Cl)cc1C(=O)Nc1cccc(F)c1 [1o, O-{4-Chloro-2-[(3-fluorophenyl)carbamoyl]phenyl} O,O-diethyl phosphorothioate] | 32 µM (≈ 13.4 µg/mL) | 32 µM (≈ 13.4 µg/mL) | 500 µM (≈ 209 µg/mL) | 500 µM (≈ 209 µg/mL) | 250 µM (≈ 104 µg/mL) | 500 µM (≈ 209 µg/mL) | > 500 µM | 250 µM (≈ 104 µg/mL) | 500 µM (≈ 209 µg/mL) | 500 µM (≈ 209 µg/mL) | 9.94 ± 0.2 µM | 11.8 ± 0.6 µM |  |  |  | 
2 | CCOP(=S)(OCC)Oc1ccc(Cl)cc1C(=O)Nc1ccc(F)cc1 [1p, O-{4-Chloro-2-[(4-fluorophenyl)carbamoyl]phenyl} O,O-diethyl phosphorothioate] | 16 µM (≈ 6.69 µg/mL) | 16 µM (≈ 6.69 µg/mL) | 500 µM (≈ 209 µg/mL) | 500 µM (≈ 209 µg/mL) | 250 µM (≈ 104 µg/mL) | 500 µM (≈ 209 µg/mL) | > 500 µM | 125 µM (≈ 52.2 µg/mL) | 250 µM (≈ 104 µg/mL) | 500 µM (≈ 209 µg/mL) | 13.6 ± 1.1 µM | 14.9 ± 0.8 µM |  |  |  | 
3 | CCOP(=S)(OCC)Oc1ccc(Cl)cc1C(=O)Nc1cccc(C(F)(F)F)c1 [1q, O-(4-Chloro-2-{[3-(trifluoromethyl)phenyl]carbamoyl}phenyl) O,O-diethyl phosphorothioate] | 8 µM (≈ 3.74 µg/mL) | 8 µM (≈ 3.74 µg/mL) | 500 µM (≈ 234 µg/mL) | > 500 µM | 125 µM (≈ 58.5 µg/mL) | 500 µM (≈ 234 µg/mL) | > 500 µM | 125 µM (≈ 58.5 µg/mL) | 500 µM (≈ 234 µg/mL) | 500 µM (≈ 234 µg/mL) | 12.1 ± 0.2 µM | 19.9 ± 0.2 µM | 8 µM (≈ 3.74 µg/mL) |  |  | 
4 | CCOP(=S)(OCC)Oc1ccc(Cl)cc1C(=O)Nc1ccc(C(F)(F)F)cc1 [1r, O-(4-Chloro-2-{[4-(trifluoromethyl)phenyl]carbamoyl}phenyl) O,O-diethyl phosphorothioate] | 8 µM (≈ 3.74 µg/mL) | 8 µM (≈ 3.74 µg/mL) | 500 µM (≈ 234 µg/mL) | 500 µM (≈ 234 µg/mL) | 62.5 µM (≈ 29.2 µg/mL) | 125 µM (≈ 58.5 µg/mL) | 250 µM (≈ 117 µg/mL) | 62.5 µM (≈ 29.2 µg/mL) | 125 µM (≈ 58.5 µg/mL) | 250 µM (≈ 117 µg/mL) | 9.7 ± 0.18 µM | 15.6 ± 0.7 µM | 8 µM (≈ 3.74 µg/mL) |  |  | 
5 | CCOP(=S)(OCC)Oc1cc(Cl)ccc1C(=O)Nc1cccc(Cl)c1 [1s, O-{5-Chloro-2-[(3-chlorophenyl)carbamoyl]phenyl} O,O-diethyl phosphorothioate] | 16 µM (≈ 6.95 µg/mL) | 32 µM (≈ 13.9 µg/mL) | 125 µM (≈ 54.3 µg/mL) | 125 µM (≈ 54.3 µg/mL) | 32 µM (≈ 13.9 µg/mL) | 125 µM (≈ 54.3 µg/mL) | 125 µM (≈ 54.3 µg/mL) | 32 µM (≈ 13.9 µg/mL) | 62.5 µM (≈ 27.1 µg/mL) | 125 µM (≈ 54.3 µg/mL) | 9.79 ± 0.2 µM | 12.5 ± 0.1 µM |  | ≤ 250 µM |  | 
6 | CCOP(=S)(OCC)Oc1cc(Cl)ccc1C(=O)Nc1ccc(Cl)cc1 [1t, O-{5-Chloro-2-[(4-chlorophenyl)carbamoyl]phenyl} O,O-diethyl phosphorothioate] | 32 µM (≈ 13.9 µg/mL) | 32 µM (≈ 13.9 µg/mL) | 125 µM (≈ 54.3 µg/mL) | 125 µM (≈ 54.3 µg/mL) | 32 µM (≈ 13.9 µg/mL) | 32 µM (≈ 13.9 µg/mL) | 32 µM (≈ 13.9 µg/mL) | 32 µM (≈ 13.9 µg/mL) | 62.5 µM (≈ 27.1 µg/mL) | 62.5 µM (≈ 27.1 µg/mL) | 10.8 ± 0.3 µM | 13.8 ± 0.05 µM |  | ≤ 250 µM |  | 
7 | CCOP(=S)(OCC)Oc1cc(Cl)ccc1C(=O)Nc1ccc(Cl)c(Cl)c1 [1u, O-{5-Chloro-2-[(3,4-dichlorophenyl)carbamoyl]phenyl} O,O-diethyl phosphorothioate] | 16 µM (≈ 7.5 µg/mL) | 16 µM (≈ 7.5 µg/mL) | > 500 µM | > 500 µM | 32 µM (≈ 15 µg/mL) | 32 µM (≈ 15 µg/mL) | 32 µM (≈ 15 µg/mL) | 32 µM (≈ 15 µg/mL) | 62.5 µM (≈ 29.3 µg/mL) | 62.5 µM (≈ 29.3 µg/mL) | 9.56 ± 0.21 µM | 14.7 ± 0.2 µM |  |  |  | 
8 | CCOP(=S)(OCC)Oc1cc(Cl)ccc1C(=O)Nc1cccc(Br)c1 [1v, O-{2-[(3-Bromophenyl)carbamoyl]-5-chlorophenyl} O,O-diethyl phosphorothioate] | 32 µM (≈ 15.3 µg/mL) | 32 µM (≈ 15.3 µg/mL) | 500 µM (≈ 239 µg/mL) | 500 µM (≈ 239 µg/mL) | 32 µM (≈ 15.3 µg/mL) | 125 µM (≈ 59.8 µg/mL) | 250 µM (≈ 120 µg/mL) | 32 µM (≈ 15.3 µg/mL) | 125 µM (≈ 59.8 µg/mL) | 250 µM (≈ 120 µg/mL) | 9.98 ± 0.43 µM | 14.9 ± 1 µM |  |  |  | 
9 | CCOP(=S)(OCC)Oc1cc(Cl)ccc1C(=O)Nc1ccc(Br)cc1 [1w, O-{2-[(4-Bromophenyl)carbamoyl]-5-chlorophenyl} O,O-diethyl phosphorothioate] | 32 µM (≈ 15.3 µg/mL) | 32 µM (≈ 15.3 µg/mL) | 250 µM (≈ 120 µg/mL) | 250 µM (≈ 120 µg/mL) | 32 µM (≈ 15.3 µg/mL) | 32 µM (≈ 15.3 µg/mL) | 32 µM (≈ 15.3 µg/mL) | 32 µM (≈ 15.3 µg/mL) | 62.5 µM (≈ 29.9 µg/mL) | 62.5 µM (≈ 29.9 µg/mL) | 10.12 ± 0.08 µM | 16.4 ± 0.2 µM |  |  |  | 
10 | CCOP(=S)(OCC)Oc1cc(Cl)ccc1C(=O)Nc1cccc(F)c1 [1x, O-{5-Chloro-2-[(3-fluorophenyl)carbamoyl]phenyl} O,O-diethyl phosphorothioate] | 16 µM (≈ 6.69 µg/mL) | 32 µM (≈ 13.4 µg/mL) | 250 µM (≈ 104 µg/mL) | 250 µM (≈ 104 µg/mL) | 32 µM (≈ 13.4 µg/mL) | 125 µM (≈ 52.2 µg/mL) | 250 µM (≈ 104 µg/mL) | 32 µM (≈ 13.4 µg/mL) | 125 µM (≈ 52.2 µg/mL) | 250 µM (≈ 104 µg/mL) | 8.04 ± 0.27 µM | 8.68 ± 0.54 µM |  |  |  | 
11 | CCOP(=S)(OCC)Oc1cc(Cl)ccc1C(=O)Nc1ccc(F)cc1 [1y, O-{5-Chloro-2-[(4-fluorophenyl)carbamoyl]phenyl} O,O-diethyl phosphorothioate] | 32 µM (≈ 13.4 µg/mL) | 32 µM (≈ 13.4 µg/mL) | 125 µM (≈ 52.2 µg/mL) | 250 µM (≈ 104 µg/mL) | 62.5 µM (≈ 26.1 µg/mL) | 250 µM (≈ 104 µg/mL) | 500 µM (≈ 209 µg/mL) | 62.5 µM (≈ 26.1 µg/mL) | 250 µM (≈ 104 µg/mL) | 500 µM (≈ 209 µg/mL) | 11.6 ± 0.3 µM | 8.67 ± 0.49 µM |  |  |  | 
12 | CCOP(=S)(OCC)Oc1cc(Cl)ccc1C(=O)Nc1cccc(C(F)(F)F)c1 [1z, O-(5-Chloro-2-{[3-(trifluoromethyl)phenyl]carbamoyl}phenyl) O,O-diethyl phosphorothioate] | 32 µM (≈ 15 µg/mL) | 62.5 µM (≈ 29.2 µg/mL) | 500 µM (≈ 234 µg/mL) | 500 µM (≈ 234 µg/mL) | 32 µM (≈ 15 µg/mL) | 125 µM (≈ 58.5 µg/mL) | 250 µM (≈ 117 µg/mL) | 62.5 µM (≈ 29.2 µg/mL) | 125 µM (≈ 58.5 µg/mL) | 125 µM (≈ 58.5 µg/mL) | 11.4 ± 0.3 µM | 15 µM |  |  | ≤ 250 µM | 
13 | CCOP(=S)(OCC)Oc1cc(Cl)ccc1C(=O)Nc1ccc(C(F)(F)F)cc1 [1zz, O-(5-Chloro-2-{[4-(trifluoromethyl)phenyl]carbamoyl}phenyl) O,O-diethyl phosphorothioate] | 8 µM (≈ 3.74 µg/mL) | 16 µM (≈ 7.49 µg/mL) | 62.5 µM (≈ 29.2 µg/mL) | 62.5 µM (≈ 29.2 µg/mL) | 16 µM (≈ 7.49 µg/mL) | 16 µM (≈ 7.49 µg/mL) | 16 µM (≈ 7.49 µg/mL) | 16 µM (≈ 7.49 µg/mL) | 32 µM (≈ 15 µg/mL) | 32 µM (≈ 15 µg/mL) | 9.16 ± 0.17 µM | 18.3 ± 1 µM |  | ≤ 250 µM | ≤ 250 µM | ≥ 16 µM
